For experiment [1], the system named is Rabbit Skeletal myofibrils (rabbit psoas muscle). The experiment in a line: Myofibril ATPase assay (PK/LDH NADH-coupled), skeletal myofibrils. It counts as biochemical. An outline of the steps:
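Rabbit psoas myofibrils in pCa (PIPES/CaCl2/EGTA, pH 7.0) buffer; ADP coupled via PK/LDH to NADH loss, read at 340 nm every 1.5–2 min for 75 min. Slopes normalized to vehicle (100%) and fit to 4-parameter logistic for EC25, plus EC50 for inhibitors.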

Experiment [2] concerns isoflurane-anesthetized SD rats. In words: In vivo echocardiography of systolic cardiac performance (FS, SWT, HR, LV volumes) after a single oral dose. As to conditions: Rattus norvegicus, single dose 10 mg/kg PO, ~2 hrs post-dosing, vs. vehicle. Here is the method:
Experiments were performed to evaluate the in vivo ability of the compounds of the disclosure to modulate systolic cardiac performance. Non-invasively echocardiography was used to assess cardiac indicators in isoflurane-anesthetized SD rats. A set of conscious rats were treated with either vehicle control (0 mg/kg PO; n=78) or a single dose of an test compound (10 mg/kg PO, n=2 to 6/compound) via oral gavage. Cardiac function/geometry were recorded at two separate time-points/days: once prior to dosing (i.e., at baseline, day −2) and at ˜2 hrs post-dosing (day 0).
In these experiments, heart rate (HR), echocardiography-derived indices of left-ventricular systolic performance, as well as dimensions/volumes were measured using a high-frequency transducer and parastemnal long-axis transthoracic views (Vevo3100, VisualSonic). LV fractional shortening (FS), an index of systolic function, was defined as the end-diastole normalized change in internal dimensions divided by the […] (LVid) of the left ventricle between end-systole (LVids) and end-diastole (LVidd) (i.e., FS=100·[LVidd−LVids]/LVidd). LV volumes were derived using the Teichholz formula (LVV=7·LVid^3/[2.4+LVid]). In addition, a systolic wall-thickening index (SWT) was also evaluated. SWT is defined as the relative ratio (end-diastole normalized) of left-ventricular (anterior and posterior) wall-thickness change during systole; i.e., SWT=I{[(anterior LV wall thickness in systole−anterior LV wall thickness in diastole)][…][(posterior LV wall thickness in systole−posterior LV wall thickness in diastole)]}/{2*diastolic thickness}. In all cases, blood samples were taken (via either tail-vein micro-sampling or cardiac-puncture) at the time of each echocardiographic examination in order to establish pharmacokinetic (PK)/pharmacodynamics (PD) relationships.

In the next experiment the test system is Porcine Atria myofibrils. In words: Myofibril ATPase assay (PK/LDH NADH-coupled), atria myofibrils. The class given is biochemical. Put shortly:
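Porcine atrial myofibril ATPase followed via PK/LDH-coupled NADH depletion, absorbance at 340 nm read every 1.5-2 min over 75 min. Slopes (mAU/min) normalized to vehicle as 100% and fit to a 4-parameter logistic; EC25% derived, plus EC50% for inhibitors.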

The target in experiment [3] is T1, Porcine Ventricle myofibrils (left ventricle of Yucatan minipigs) (Sus scrofa, UniProt P79293).
T1 construct: Myofibrils from porcine cardiac muscle was isolated from the left ventricle of Yucatan minipigs; tissue Exemplar Genetics; host or cells: left ventricle of Yucatan minipigs
T1 sequence (P79293 whole entry): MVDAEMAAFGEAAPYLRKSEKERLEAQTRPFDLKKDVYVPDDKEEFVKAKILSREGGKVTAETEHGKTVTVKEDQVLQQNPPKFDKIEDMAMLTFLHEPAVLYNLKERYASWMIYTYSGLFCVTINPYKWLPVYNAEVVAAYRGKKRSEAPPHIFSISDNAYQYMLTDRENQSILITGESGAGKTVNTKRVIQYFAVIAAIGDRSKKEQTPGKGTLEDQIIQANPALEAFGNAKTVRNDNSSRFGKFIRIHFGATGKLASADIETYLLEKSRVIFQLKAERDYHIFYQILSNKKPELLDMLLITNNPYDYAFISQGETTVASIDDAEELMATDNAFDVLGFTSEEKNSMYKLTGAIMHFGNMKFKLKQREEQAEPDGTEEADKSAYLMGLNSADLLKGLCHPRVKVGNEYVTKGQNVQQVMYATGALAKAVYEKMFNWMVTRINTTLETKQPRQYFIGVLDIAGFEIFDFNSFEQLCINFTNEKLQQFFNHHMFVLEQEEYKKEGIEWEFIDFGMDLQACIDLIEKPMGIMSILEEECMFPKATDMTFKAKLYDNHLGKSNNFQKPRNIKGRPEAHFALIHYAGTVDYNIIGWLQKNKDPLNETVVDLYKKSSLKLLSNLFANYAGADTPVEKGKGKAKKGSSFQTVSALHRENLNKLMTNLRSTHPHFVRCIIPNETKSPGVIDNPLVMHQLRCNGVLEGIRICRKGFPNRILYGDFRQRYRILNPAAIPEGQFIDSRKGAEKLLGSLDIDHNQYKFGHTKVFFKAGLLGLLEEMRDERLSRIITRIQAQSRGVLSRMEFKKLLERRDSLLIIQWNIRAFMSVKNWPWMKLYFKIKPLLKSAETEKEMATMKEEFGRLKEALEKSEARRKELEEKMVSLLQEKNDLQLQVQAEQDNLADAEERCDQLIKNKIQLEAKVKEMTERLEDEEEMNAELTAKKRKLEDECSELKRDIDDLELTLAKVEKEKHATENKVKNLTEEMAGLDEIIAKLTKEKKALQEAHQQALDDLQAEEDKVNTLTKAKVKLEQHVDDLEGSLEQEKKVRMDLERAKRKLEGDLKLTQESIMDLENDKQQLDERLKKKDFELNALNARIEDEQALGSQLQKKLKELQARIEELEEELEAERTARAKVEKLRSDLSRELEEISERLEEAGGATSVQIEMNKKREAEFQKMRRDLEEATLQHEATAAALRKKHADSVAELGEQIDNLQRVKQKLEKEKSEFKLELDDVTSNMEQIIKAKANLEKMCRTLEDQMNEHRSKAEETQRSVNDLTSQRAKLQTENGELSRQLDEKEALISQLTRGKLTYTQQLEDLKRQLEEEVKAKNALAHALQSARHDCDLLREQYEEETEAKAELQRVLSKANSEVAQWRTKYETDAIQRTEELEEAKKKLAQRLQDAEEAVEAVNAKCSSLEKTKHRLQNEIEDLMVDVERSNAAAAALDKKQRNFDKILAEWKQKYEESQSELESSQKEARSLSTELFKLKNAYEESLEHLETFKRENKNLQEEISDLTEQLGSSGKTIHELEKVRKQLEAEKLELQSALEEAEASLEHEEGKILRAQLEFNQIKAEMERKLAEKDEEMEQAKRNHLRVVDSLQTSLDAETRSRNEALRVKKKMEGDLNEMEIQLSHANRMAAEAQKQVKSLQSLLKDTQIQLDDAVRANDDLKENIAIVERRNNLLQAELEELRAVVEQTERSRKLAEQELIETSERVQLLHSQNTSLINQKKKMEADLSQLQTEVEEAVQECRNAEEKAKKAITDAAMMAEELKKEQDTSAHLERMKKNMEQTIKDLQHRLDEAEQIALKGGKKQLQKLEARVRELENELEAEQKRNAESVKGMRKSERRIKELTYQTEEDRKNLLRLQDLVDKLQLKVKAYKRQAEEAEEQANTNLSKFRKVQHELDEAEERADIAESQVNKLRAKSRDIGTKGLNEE
The experiment in a line: Myofibril ATPase assay (PK/LDH NADH-coupled), ventricle myofibrils. It counts as biochemical. Put shortly:
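Yucatan minipig left-ventricle myofibrils; ATPase measured by PK/LDH-coupled NADH loss at 340 nm, read every 1.5-2 min for 75 min. Slopes normalized to vehicle (100%) and fit to 4-parameter logistic model; EC25 and, for inhibitors, EC50 calculated.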

Setting [4] is: EDV (LV volume, Teichholz formula), read-out: EDV % vs. VEH.
Setting [5] is: LV fractional shortening, read-out: FS % vs. VEH.
Setting [6] is: heart rate, read-out: HR % vs. VEH.
Where [7] appears, read: systolic wall-thickening index, read-out: SWT % vs. VEH.

Each structure is given as a SMILES string. Where two headings read alike, the source gives them in different places.

Consider `[2H]C1([2H])c2c(ccc(F)c2F)NC(=O)N1CC(=O)N[C@@H](C)c1ncc(C#N)cc1F` [Compound B366], for which the “Rabbit Psoas IC25” value in experiment [1] (Table 8) came out at 50 nM. Besides, the change in vivo at 10 mg/kg in experiment [2] (setting [4]) was 82%; in experiment [2] (setting [5]), -71%; in experiment [2] (setting [6]), -2%; in experiment [2] (setting [7]) it was -41%. Besides, the “Porcine Atria IC25” value with Porcine Atria myofibrils (Table 8) was determined as 70 nM. In addition, the “Porcine Ventricle IC25” value in experiment [3] (Table 8) was 770 nM.

As to `[2H]C1([2H])c2c(ccc(F)c2F)NC(=O)N1CC(=O)N[C@H](C)c1ncc(C#N)cc1F` [Compound B367], the “Rabbit Psoas IC25” value in experiment [1] (Table 8) was found to be 780 nM. Also, the change in vivo at 10 mg/kg is -6% in experiment [2] (setting [4]), -31% in experiment [2] (setting [5]), 10% in experiment [2] (setting [6]) and -32% in experiment [2] (setting [7]). For the same compound, the “Porcine Atria IC25” value in the experiment with Porcine Atria myofibrils (Table 8) was 320 nM. Also, the “Porcine Ventricle IC25” value in experiment [3] (Table 8) was 550 nM.

For the compound `C[C@H](NC(=O)CN1Cc2c(ccc(F)c2F)NC1=O)c1ncc(C#N)cc1F` [Compound B142], the “Rabbit Psoas IC25” value in experiment [1] (Table 8) came to 21.68 nM. The change in vivo at 10 mg/kg is 21% in experiment [2] (setting [4]), -81% in experiment [2] (setting [5]), 6% in experiment [2] (setting [6]) and -78% in experiment [2] (setting [7]). Moreover, in the experiment with Porcine Atria myofibrils (Table 8), the “Porcine Atria IC25” value is 40 nM. Moreover, the “Porcine Ventricle IC25” value in experiment [3] (Table 8) turned out to be 54.34 nM.

Turning to `N#Cc1c(F)ccc2c1CN(CC(=O)N[C@@H](CO)c1ccc(F)cc1F)C(=O)N2` [Compound B152], the “Rabbit Psoas IC25” value in experiment [1] (Table 8) was found to be 39.53 nM. Moreover, the change in vivo at 10 mg/kg in experiment [2] (setting [4]) is -6%; in experiment [2] (setting [5]), 6%; in experiment [2] (setting [6]), 1%; in experiment [2] (setting [7]), -2%. The “Porcine Atria IC25” value in the experiment with Porcine Atria myofibrils (Table 8) is 170 nM. For the same compound, in experiment [3] (Table 8), the “Porcine Ventricle IC25” value was 294.6 nM.

As for `C[C@@H](NC(=O)CN1Cc2cc(F)c(F)cc2NC1=O)c1ncc(C#N)cc1F` [Compound B357], the “Rabbit Psoas IC25” value in experiment [1] (Table 8) turned out to be 50290 nM. The change in vivo at 10 mg/kg is 5% in experiment [2] (setting [4]), -8% in experiment [2] (setting [5]), -5% in experiment [2] (setting [6]) and -5% in experiment [2] (setting [7]). The “Porcine Atria IC25” value with Porcine Atria myofibrils (Table 8) was determined as 1560 nM. Moreover, the “Porcine Ventricle IC25” value in experiment [3] (Table 8) stood at 100000 nM.

Take `Cc1nc(C#N)cnc1C(C)NC(=O)CN1Cc2c(ccc(F)c2F)NC1=O` (single isomer, unassigned) [Compound B55]: the “Rabbit Psoas IC25” value in experiment [1] (Table 8) amounted to 11.4 nM. Further, the change in vivo at 10 mg/kg in experiment [2] (setting [4]) was 70%; in experiment [2] (setting [5]), -36%; in experiment [2] (setting [6]), -5%; in experiment [2] (setting [7]) it was 10%. Moreover, the “Porcine Atria IC25” value with Porcine Atria myofibrils (Table 8) was 50 nM. Besides, in experiment [3] (Table 8), the “Porcine Ventricle IC25” value was determined as 53.3 nM.

Take `O=C(CN1Cc2cc(F)ccc2NC1=O)N[C@@H](CO)c1ncc(F)cc1F` [Compound B181]: in experiment [1] (Table 8), the “Rabbit Psoas IC25” value amounted to 242 nM. Moreover, the change in vivo at 10 mg/kg was -6% in experiment [2] (setting [4]), -13% in experiment [2] (setting [5]), 8% in experiment [2] (setting [6]) and -5% in experiment [2] (setting [7]). The “Porcine Atria IC25” value with Porcine Atria myofibrils (Table 8) turned out to be 130 nM. For the same compound, in experiment [3] (Table 8), the “Porcine Ventricle IC25” value was determined as 1905 nM.

For the compound `C[C@@H](NC(=O)CN1C(=O)Nc2ccc(F)c(F)c2C1O)c1ncc(C#N)cc1F` (some centres unmarked) [Compound B327], the change in vivo at 10 mg/kg is -2% in experiment [2] (setting [4]), -1% in experiment [2] (setting [5]), 5% in experiment [2] (setting [6]) and 10% in experiment [2] (setting [7]).

For `C[C@H](NC(=O)CN1Cc2c(ccc(F)c2F)NC1=O)c1ncc(C#N)cn1` [Compound B106], the “Rabbit Psoas IC25” value in experiment [1] (Table 8) stood at 302.8 nM. Besides, in the experiment with Porcine Atria myofibrils (Table 8), the “Porcine Atria IC25” value stood at 90 nM. Besides, the “Porcine Ventricle IC25” value in experiment [3] (Table 8) came to 476.5 nM.

For `C[C@H](NC(=O)CN1Cc2c(ccnc2C(F)(F)F)NC1=O)c1ncc(F)cc1F` [Compound N80], in experiment [1] (Table 7), the “Rabbit Psoas IC25” value was found to be 4790 nM. In addition, the “Porcine Atria IC25” value in the experiment on Porcine Atria myofibrils (Table 7) was 8030 nM. In addition, in experiment [3] (Table 7), the “Porcine Ventricle IC25” value came to 100000 nM.

For the compound `C[C@H](NC(=O)CN1Cc2c(ccc(F)c2F)NC1=O)c1ccc(Cl)cn1` [Compound B94], the “Rabbit Psoas IC25” value in experiment [1] (Table 8) is 129.4 nM. For the same compound, the “Porcine Atria IC25” value in the experiment on Porcine Atria myofibrils (Table 8) came to 90 nM. The “Porcine Ventricle IC25” value in experiment [3] (Table 8) was 543.8 nM.

In the case of `C[C@H](NC(=O)CN1Cc2c(ccc(F)c2F)NC1=O)c1cc2cccnc2cn1` [Compound B271], the “Rabbit Psoas IC25” value in experiment [1] (Table 8) turned out to be 100000 nM. Further, the “Porcine Atria IC25” value in the experiment on Porcine Atria myofibrils (Table 8) was 100000 nM. The “Porcine Ventricle IC25” value in experiment [3] (Table 8) came out at 55130 nM.

Take `O=C(CN1Cc2c(ccnc2C(F)(F)F)NC1=O)N[C@H]1COc2cc(F)cc(F)c21` [Compound N19]: in experiment [1] (Table 7), the “Rabbit Psoas IC25” value amounted to 2245 nM. Besides, the “Porcine Atria IC25” value in the experiment on Porcine Atria myofibrils (Table 7) turned out to be 2000 nM. For the same compound, the “Porcine Ventricle IC25” value in experiment [3] (Table 7) is 11460 nM.

As for `C[C@H](NC(=O)[C@@H](C)N1Cc2c(ccc(F)c2F)NC1=O)c1ccc(F)cc1F` [Compound B236], in experiment [1] (Table 8), the “Rabbit Psoas IC25” value is 33.3 nM. Moreover, in the experiment on Porcine Atria myofibrils (Table 8), the “Porcine Atria IC25” value was 30 nM. Also, the “Porcine Ventricle IC25” value in experiment [3] (Table 8) was 231.6 nM.

In the case of `Cc1cc(C#N)cnc1[C@@H](C)NC(=O)CN1Cc2c(ccc(F)c2F)NC1=O` [Compound B8], the “Rabbit Psoas IC25” value in experiment [1] (Table 8) was 1018 nM. In the experiment with Porcine Atria myofibrils (Table 8), the “Porcine Atria IC25” value is 430 nM. Further, in experiment [3] (Table 8), the “Porcine Ventricle IC25” value was 603.9 nM.

In the case of `Cc1cccnc1[C@@H](C)NC(=O)CN1Cc2c(ccc(F)c2F)NC1=O` [Compound B182], the “Rabbit Psoas IC25” value in experiment [1] (Table 8) amounted to 1159 nM. The “Porcine Atria IC25” value with Porcine Atria myofibrils (Table 8) was 2280 nM. For the same compound, the “Porcine Ventricle IC25” value in experiment [3] (Table 8) stood at 100000 nM.

Turning to `C[C@H](NC(=O)CN1C(=O)Nc2ccc(F)cc2C12CC2)c1cnc(C#N)cn1` [Compound B337], in experiment [1] (Table 8), the “Rabbit Psoas IC25” value was 100000 nM. Moreover, the “Porcine Atria IC25” value in the experiment with Porcine Atria myofibrils (Table 8) came to 1010 nM. Also, the “Porcine Ventricle IC25” value in experiment [3] (Table 8) worked out at 7010 nM.

`C[C@@H](NC(=O)CN1Cc2c(ccc(F)c2F)NC1=O)c1ncnc(C#N)c1F` [Compound B341]: the “Rabbit Psoas IC25” value in experiment [1] (Table 8) stood at 1680 nM. In addition, in the experiment on Porcine Atria myofibrils (Table 8), the “Porcine Atria IC25” value amounted to 730 nM. Moreover, the “Porcine Ventricle IC25” value in experiment [3] (Table 8) worked out at 350 nM.

Take `C[C@@H](NC(=O)[C@H](C)N1Cc2cc(F)ccc2NC1=O)c1ccc(F)cc1F` [Compound B239]: in experiment [1] (Table 8), the “Rabbit Psoas IC25” value was 7191 nM. Moreover, the “Porcine Atria IC25” value in the experiment on Porcine Atria myofibrils (Table 8) amounted to 100000 nM. Besides, the “Porcine Ventricle IC25” value in experiment [3] (Table 8) turned out to be 100000 nM.

Source of the values: patent US12509431B2, “1,4-dihydroquinazolinone compounds and uses thereof” (Edgewise Therapeutics, Inc., priority 2022, dated 2025).
